In patent US20120237533A1, “Compositions and Methods for Inducing Apoptosis in Prostate Cancer Cells” (priority 2009, published 2012):

Key:
[1] = system: Prostate cancer C42 cells; assay: Apoptosis assays: caspase-3 activity and time lapse video recording; assay type: cell-based; conditions: for concentration at which maximal caspase activation is achieved: comparison of PI3K inhibitors
Procedure: FIG. 6. […] Prostate cancer C42 cells were treated with 10 nM of TGFα-pseudomonas exotoxin chimera (PE) and 500 nM PI3K inhibitor ZSTK474 (ZSTK) or PI3K inhibitor LY294002 (LY) individually and in combination. A) Caspase activity was measured 3 h and 6 h after treatments began; B) Time lapse video-recording of C42 cells treated with 10 nM PE or combination of 10 nM PE and 500 nM ZSTK474. Representative images taken 2, 5, and 14 h after treatments began; C) Caspase activity measured 6 h after cells were treated with increasing concentrations of PE and 25 mcM of LY294002 (LY).
Western blotting—Tumors were excised, homogenized on ice in lysis buffer [10% glycerol, 50 mM PIPES-KOH (pH 7.4), 5 mM EDTA, 1% NP40, 1 mM DTT, protease and phosphatase inhibitors;] centrifuged 10 min 14,000 G to precipitate unsoluble fraction. Soluble fraction was resolved by SDS-PAGE followed by Western blotting on nitrocellulose. Nitrocellulose membranes were probed with antibodies to Akt and phospho-Akt according to manufacturer's instructions; the appropriate secondary antibodies were then applied and positive signals detected by enhanced chemiluminescence. Immunofluorescence—Cells were plated on glass coverslips in 6-well plates and treated and fixed with 10% formalin in PBS (pH 7.4) for 15 min. The cells were then blocked in 2.5% goat serum in PBS-T for 30 min at 37° C. Blocking solution was used to prepare a 1:300 mixture of mouse-J591 anti-PSMA antibodies subsequent procedures were done at room temperature. Incubation with primary antibodies was continued for 3 h. The cells were then washed three times with PBS-T and incubated with a mixture of goat antimouse antibodies conjugated with fluorescein, diluted in blocking solution at a ratio of 1:300 each. One h later, cells were washed with PBS-T, stained with DAPI, and mounted on glass microscope slides. Image analysis was done on a Nikon microscope equipped with a digital camera and software from Inovision (Durham, N.C.). Tumor Implantations—Nude mice (BALB/cAnNCrj-nu from Charles River) received four subcutaneous injections or two intratibial injections of 2×10^6 cells with Matrigel. Injections were made using an insulin syringe and a 27 gauge needle. All manipulations with animals were conducted in humane manner, in strict adherence with a protocol approved by institutional ACUC, which was designed to minimize animal suffering. Luminescence Imaging—Tumor growth was analyzed with a Xenogen IVIS® 100 optical imaging system (Caliper Life Sciences, Hopkinton, Mass.). Animals were immobilized for substrate injection and imaging through an attached gas anesthesia system consisting of 2% isoflurane/O2. To account for background and nonspecific luminescence, mice were imaged before injection of […]. Animals were injected with 100 μl of the firefly luciferase substrate luciferin (3.5 mg/ml in PBS) and imaged 15 minutes later in prone and supine positions (5 minutes each). Whole-body images were obtained using the Living Image® software provided with imaging system. A gray-scale photographic image and the bioluminescent color image are superimposed to provide anatomic registration of the light signal. A region of interest (ROI) was manually selected over the luminescent signal, and the intensity was recorded as photons/second within an ROI. Apoptosis Assays—Apoptosis in whole cell populations was quantified by measuring caspase-3 activity with the fluorogenic substrate Ac-DEVD-7-amido-4-trifluoromethyl-coumarin (Bachem) as specified by the manufacturer. For these experiments, attached and floating cells were collected and lysed in caspase lysis buffer (1% Nonidet P-40, 150 mM NaCl, 20 mM HEPES, 1 mM EDTA, 1 mM dithiothreitol, and 5 μg/ml aprotinin, leupeptin, and pepstatin). Fluorescence was recorded each 15 min for 1 h, and caspase activity was expressed in arbitrary units. […]

[2] = system: PI3K; assay: Western blotting of tumor lysates for Akt phosphorylation; assay type: in vivo, mice; conditions: xenografts injected with LY294002
Description: (§1) FIG. 4A) Representative luminescent images (superimposed on black and white images) of mice injected with solvent (DMSO) or LY294002. Injection site is indicated by arrow. FIG. 4B) Changes in luminescence of subcutaneous xenograft tumors injected with LY294002 or DMSO (error bars show standard deviations between 3 tumors injected with each agent). FIG. 4C) Tissue sections of xenograft tumors. Arrowheads point at apoptotic cells. FIG. 4D) Inhibition of Akt phosphorylation in xenografts injected with LY294002. Western blotting of tumor lysates.
(§2) Western blotting—Tumors were excised, homogenized on ice in lysis buffer [10% glycerol, 50 mM PIPES-KOH (pH 7.4), 5 mM EDTA, 1% NP40, 1 mM DTT, protease and phosphatase inhibitors;] centrifuged 10 min 14,000 G to precipitate unsoluble fraction. […] Nitrocellulose membranes were probed with antibodies to Akt and phospho-Akt according to manufacturer's instructions; the appropriate secondary antibodies were then applied and positive signals detected by enhanced chemiluminescence. […] Luminescence Imaging—Tumor growth was analyzed with a Xenogen IVIS® 100 optical imaging system (Caliper Life Sciences, Hopkinton, Mass.). […] To account for background and nonspecific luminescence, mice were imaged before injection of luciferase. […] Fluorescence was recorded each 15 min for 1 h, and caspase activity was expressed in arbitrary units. […]

[3] = system: subcutaneous xenograft tumors; assay: Luminescence imaging of subcutaneous xenograft tumors injected with LY294002; assay type: in vivo, mice; conditions: injections into subcutaneous xenograft tumors, versus DMSO
Description: as §1, §2

[4] = system: PI3K; conditions: J. Natl. Can. Inst. 2006, 98, 545-556; cited from earlier work

Row | Structure (SMILES) | concentration at which maximal caspase activation is achieved [1] [µM] | PI3K activity (Akt phosphorylation in xenografts) [2] | tumor growth (luminescence of xenograft tumors) [3] | induction of apoptosis ([1]; 25 μM LY294002 in combination with 10 nM of TGFαPE40 fusion) | induction of apoptosis (caspase activity) ([1]; C42 cells, 25 mcM LY294002 with increasing concentrations of PE, 6 h) | induction of apoptosis ([1]; 0.5 μM of ZSTK474 in combination with 10 nM of TGFαPE40 fusion) | induction of apoptosis (caspase activity, time lapse video) ([1]; C42 cells, 500 nM ZSTK474 with 10 nM TGFα-pseudomonas exotoxin chimera (PE), 3 h and 6 h) | PI3K inhibition relative to LY294002 [4]
1 | Cn1c(=O)n(-c2ccc(C(C)(C)C#N)cc2)c2c3cc(-c4cnc5ccccc5c4)ccc3ncc21 [BEZ235] | 5 | – | – | – | – | – | – | –
2 | O=c1cc(N2CCOCC2)oc2c(-c3ccccc3)cccc12 [LY294002] | 25 | inhibit PI3K activity | inhibit | maximal induction of apoptosis | synergistic induction of apoptosis | – | – | –
3 | FC(F)c1nc2ccccc2n1-c1nc(N2CCOCC2)nc(N2CCOCC2)n1 [ZSTK474] | 0.5 | – | – | – | – | maximal induction of apoptosis | synergistic induction of apoptosis | more efficiently than LY294002
